Measured values published in the OPERA property sets (Mansouri et al. 2018).

logP | Structure (SMILES)
4.22 | C=C1[C@H]2CC[C@H](C2)C1(C)C
3.17 | CC1(C)[C@H]2CC[C@](C)(C2)[C@H]1O
4 | CC(=O)OC1CC(C)CCC1C(C)C (racemic)
2.97 | CC(C)C12CCC(C)(CC1)O2
3.05 | CC(C)[C@@H]1CC[C@@H](C)CC1=O
2.05 | CC1(C)C2CCC(CN)C1C2 (centres undefined)
3.21 | C=C(C)C1CCC(C)C(O)C1 (centres undefined)
2.23 | CC1=CC(=O)[C@H]2C[C@@H]1C2(C)C
3.08 | CC(C)=C1CC[C@@H](C)CC1=O
3.24 | CC1(C)[C@@H]2CC[C@@]1(C)[C@H](O)C2
4.04 | CC(=O)OC/C=C(\C)CCC=C(C)C
4.25 | CC1=CC=C(C(C)C)CC1
3.2 | C=C(C)C1CCC2(C)OC2C1 (centres undefined)
4.16 | C=C1CCC2CC1C2(C)C (centres undefined)
3.17 | C=C(C)C1CC=C(CO)CC1 (centres undefined)
3.04 | CC=Cc1ccc(O)c(OC)c1
2.98 | CC1(C)C2CC=C(C=O)C1C2 (centres undefined)
3.56 | CC(C)=CCC/C(C)=C/CO
3.96 | CC(=O)OC(C)(C)C1CC=C(C)CC1 (centres undefined)

logP | Structure (SMILES)
2.85 | C=C(C)C1CCC(C)C(=O)C1 (centres undefined)
2.43 | C=CC1(C)CCC(C(C)(C)O)O1 (centres undefined)
4.44 | CC1=CC2C(CC1)C2(C)C (centres undefined)
3.16 | CC1=CC(O)C2CC1C2(C)C (centres undefined)
2.42 | CC1=CCC2C(C1=O)C2(C)C (centres undefined)
2.71 | C=C(C)[C@@H]1CC=C(C)C(=O)C1
1.81 | CC1=CCC(C(C)(C)O)C[C@@H]1O (some centres undefined)
3.52 | CC12CCC(C1)C(C)(C)C2=O (centres undefined)
2.74 | CC12CCC(CC1)C(C)(C)O2
3.85 | CC(=O)/C=C/C1C(C)=CCCC1(C)C (centres undefined)
4.38 | CC1=CCC2C(C1)C2(C)C (centres undefined)
3.83 | CC(C)=CCC[C@@H](C)CC=O
3.4 | CC1CCC(C(C)C)C(O)C1 (centres undefined)
3.26 | CC1=CCC(O)(C(C)C)CC1 (centres undefined)
2.85 | CC1=CC(=O)C(C(C)C)CC1 (centres undefined)
3.12 | C=C(C)C1CC=C(C)C(O)C1 (centres undefined)
3.22 | CC1(C)C2CC=C(CO)C1C2 (centres undefined)
3.93 | C=CC(C)(CCC=C(C)C)OC(C)=O (centres undefined)

Structure (SMILES) | logP
Cc1ccc(C(C)C)cc1O | 3.49
C=C(C)[C@@H]1CC=C(C=O)CC1 | 3.13
